ChEMBL document CHEMBL2203133 (J Med Chem, 2012)

Key:
[1] = Plasma concentration in BALB/c mouse at 10 mg/kg, po at 6 hrs; type: ADME, organism-based; design: dose 10 mg/kg, route oral
[2] = Plasma concentration in BALB/c mouse at 10 mg/kg, po at 1 hr; type: ADME, organism-based; design: dose 10 mg/kg, route oral
[3] = system: Plasma; test: Dose normalized plasma concentration in BALB/c mouse at 1 mg/kg, iv at 6 hrs administered as bolus dose; type: ADME, organism-based; design: dose 1 mg/kg, route intravenous; conditions: in vivo
[4] = system: Plasma; test: Dose normalized plasma concentration in BALB/c mouse at 1 mg/kg, iv at 1 hr administered as bolus dose; type: ADME, organism-based; design: dose 1 mg/kg, route intravenous; conditions: in vivo
[5] = biological target: T1, Serine/threonine-protein kinase Chk1 (Homo sapiens, UniProt O14757)
T1 sequence (O14757 whole entry): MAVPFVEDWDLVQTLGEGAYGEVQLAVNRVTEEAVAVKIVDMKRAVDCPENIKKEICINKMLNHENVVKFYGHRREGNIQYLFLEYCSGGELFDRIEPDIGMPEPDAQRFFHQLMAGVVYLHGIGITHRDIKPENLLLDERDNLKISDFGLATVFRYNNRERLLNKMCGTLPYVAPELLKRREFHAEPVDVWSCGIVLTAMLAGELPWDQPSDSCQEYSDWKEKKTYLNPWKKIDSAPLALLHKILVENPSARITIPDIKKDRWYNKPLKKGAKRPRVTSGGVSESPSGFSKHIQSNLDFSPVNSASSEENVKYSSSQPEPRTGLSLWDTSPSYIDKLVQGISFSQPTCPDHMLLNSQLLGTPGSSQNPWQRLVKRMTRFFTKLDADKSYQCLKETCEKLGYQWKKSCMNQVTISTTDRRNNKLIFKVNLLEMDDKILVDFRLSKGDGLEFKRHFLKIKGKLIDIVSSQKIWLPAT

[6] = in vitro; conditions: mouse, liver microsomes

CNc1cc(Nc2cnc(C#N)c(O[C@@H]3CCN(C)C3)n2)ncc1-c1cnn(C)c1
concentration at 6 h [1]: 0.012 µM | concentration at 1 h [2]: 0.193 µM | Cp/dose [3]: < 0.02 µM | Cp/dose [4]: 0.32 µM | IC50 [5]: 4.4 nM | metabolised at 0.5 h [6]: 17%
